# pEC50, pIC50: −log10 of the molar value.
# Assays:
# [1] = molecular target: T1, human HDAC1 (Homo sapiens, UniProt Q13547); assay: Homo sapiens HDAC1 inhibition assay (Fluor-de-Lys, enzymatic); format: biochemical; conditions: human HDAC enzymatic assay; read-out: hHDAC IC50
# T1 construct: made in house; host or cells: HeLa (ATCC CCL-2), mammalian cells
# How it was run: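 Product developed with trypsin developer containing 2 μM TSA to stop the reaction; fluorescence measures deacetylase activity, inversely related to inhibition.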
# [2] = system: Plasmodium falciparum 3D7; assay: P. falciparum growth inhibition assay (Pf-LDH); format: cell-based; conditions: Plasmodium falciparum, Erythrocyte; P. falciparum 3D7 infected erythrocytes, 72 h incubation, PfLDH readout
# How it was run: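 P. falciparum 3D7 (chloroquine-sensitive) at 0.25% parasitemia and 2% hematocrit was incubated with compound for 72 h at 37° C under 4% CO2/3% O2/93% N2. After freeze-thaw, PfLDH activity was read at 650 nm with lactate/APAD/NBT/diaphorase mix (pH 8.0).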
# T1 sequence (Q13547 whole entry): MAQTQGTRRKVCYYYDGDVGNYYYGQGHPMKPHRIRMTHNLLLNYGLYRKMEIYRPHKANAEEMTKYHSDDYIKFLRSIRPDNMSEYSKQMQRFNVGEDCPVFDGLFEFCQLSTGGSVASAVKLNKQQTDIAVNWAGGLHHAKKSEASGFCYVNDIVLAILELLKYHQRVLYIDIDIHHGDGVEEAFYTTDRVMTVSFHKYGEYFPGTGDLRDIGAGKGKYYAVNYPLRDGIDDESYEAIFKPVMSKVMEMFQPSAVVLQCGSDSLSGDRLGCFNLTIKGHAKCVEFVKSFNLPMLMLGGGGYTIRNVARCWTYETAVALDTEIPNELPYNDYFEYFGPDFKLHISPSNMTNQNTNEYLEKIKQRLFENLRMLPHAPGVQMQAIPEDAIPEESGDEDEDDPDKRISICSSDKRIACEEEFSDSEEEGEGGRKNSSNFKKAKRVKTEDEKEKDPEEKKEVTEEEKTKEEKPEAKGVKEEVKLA
SMILES,pIC50 [1],pEC50 [2]
"CNC(=O)CCCCC[C@H](NC(=O)c1nnc(C)o1)c1ncc(-c2ccc3ccccc3c2)[nH]1 [Entry 203, (S)-5-methyl-N-(7-(methylamino)-1-(5-(naphthalen-2-yl)-1H-imidazol-2-yl)-7-oxoheptyl)-1,3,4-oxadiazole-2-carboxamide]",< 5.30,5.30 to 6.00
"CNC(=O)CCCCC[C@H](NC(=O)C12CCN(CC1)CC2)c1ncc(-c2cc3ccccc3[nH]c2=O)[nH]1 [Entry 204, (S)-N-(7-(methylamino)-7-oxo-1-(5-(2-oxo-1,2-dihydroquinolin-3-yl)-1H-imidazol-2-yl)heptyl)quinuclidine-4-carboxamide]",5.30 to 6.00,< 5.30
"CNC(=O)CCCCC[C@H](NC(=O)c1cncs1)c1ncc(-c2ccc(-c3ccccc3)s2)[nH]1 [Entry 205, (S)-N-(7-(methylamino)-7-oxo-1-(5-(5-phenylthiophen-2-yl)-1H-imidazol-2-yl)heptyl)thiazole-5-carboxamide]",5.30 to 6.00,5.30 to 6.00
"CNC(=O)CCCCC[C@H](NC(=O)[C@@H]1CCCN2CCCC[C@H]12)c1ncc(-c2ccc3ccncc3c2)[nH]1 [Entry 206, (1R,9aR)-N-((S)-1-(5-(isoquinolin-7-yl)-1H-imidazol-2-yl)-7-(methylamino)-7-oxoheptyl)octa-hydro-1H-quinolizine-1-carboxamide]",5.30 to 6.00,5.30 to 6.00
CNC(=O)CCCCC[C@H](NC(=O)Cc1ncccn1)c1ncc(-c2ccc3ccncc3c2)[nH]1 [Entry 207],< 5.30,5.30 to 6.00
"CNC(=O)CCCCC[C@H](NC(=O)Cn1cc2ccccc2n1)c1ncc(-c2ccc3ccncc3c2)[nH]1 [Entry 208, (S)-7-(2-(2H-indazol-2-yl)acetamido)-7-(5-(isoquinolin-7-yl)-1H-imidazol-2-yl)-N-methyl-heptanamide]",> 6.00,> 6.00
"CNC(=O)CCCCC[C@H](NC(=O)c1cscn1)c1ncc(-c2ccc(-c3ccn(C)n3)cc2)[nH]1 [Entry 209, (S)-N-(1-(5-(4-(1-methyl-1H-pyrazol-3-yl)phenyl)-1H-imidazol-2-yl)-7-(methylamino)-7-oxoheptyl)thiazole-4-carboxamide]",< 5.30,< 5.30
CNC(=O)CCCCC[C@H](NC(=O)c1cnsc1)c1ncc(-c2ccc(-c3ccn(C)n3)cc2)[nH]1 [Entry 210],5.30 to 6.00,> 6.00
CNC(=O)CCCCC[C@H](NC(=O)Cc1ncccn1)c1ncc(-c2ccc(-c3ccn(C)n3)cc2)[nH]1 [Entry 211],< 5.30,< 5.30
"CNC(=O)CCCCC[C@H](NC(=O)c1cnn(C)c1)c1ncc(-c2ccc(-c3ccn(C)n3)cc2)[nH]1 [Entry 212, (S)-1-methyl-N-(1-(5-(4-(1-methyl-1H-pyrazol-3-yl)phenyl)-1H-imidazol-2-yl)-7-(methylamino)-7-oxoheptyl)-1H-pyrazole-4-carboxamide]",5.30 to 6.00,> 6.00
"CNC(=O)CCCCC[C@H](NC(=O)c1ccnn1C)c1ncc(-c2ccc(-c3ccn(C)n3)cc2)[nH]1 [Entry 213, (S)-1-methyl-N-(1-(5-(4-(1-methyl-1H-pyrazol-3-yl)phenyl)-1H-imidazol-2-yl)-7-(methylamino)-7-oxoheptyl)-1H-pyrazole-5-carboxamide]",< 5.30,5.30 to 6.00
"CNC(=O)CCCCC[C@H](NC(=O)c1ccn(C(F)F)n1)c1ncc(-c2ccc(-c3ccn(C)n3)cc2)[nH]1 [Entry 214, (S)-1-(difluoromethyl)-N-(1-(5-(4-(1-methyl-1H-pyrazol-3-yl)phenyl)-1H-imidazol-2-yl)-7-(methylamino)-7-oxoheptyl)-1H-pyrazole-3-carboxamide]",< 5.30,5.30 to 6.00
"CNC(=O)CCCCC[C@H](NC(=O)c1cncs1)c1ncc(-c2ccc(-c3ccn[nH]3)cc2)[nH]1 [Entry 221, (S)-N-(1-(5-(4-(1H-pyrazol-5-yl)phenyl)-1H-imidazol-2-yl)-7-(methylamino)-7-oxoheptyl)thiazole-5-carboxamide]",5.30 to 6.00,> 6.00

# Further lines, results first:
pIC50 [1],pEC50 [2],SMILES
< 5.30,5.30 to 6.00,"CNC(=O)CCCCC[C@H](NC(=O)c1cc(C)nn1C)c1ncc(-c2ccc(-c3ccn(C)n3)cc2)[nH]1 [Entry 215, (S)-1,3-dimethyl-N-(1-(5-(4-(1-methyl-1H-pyrazol-3-yl)phenyl)-1H-imidazol-2-yl)-7-(methylamino)-7-oxoheptyl)-1H-pyrazole-5-carboxamide]"
< 5.30,5.30 to 6.00,"CNC(=O)CCCCC[C@H](NC(=O)c1cc(C)n(C)n1)c1ncc(-c2ccc(-c3ccn(C)n3)cc2)[nH]1 [Entry 216, (S)-1,5-dimethyl-N-(1-(5-(4-(1-methyl-1H-pyrazol-3-yl)phenyl)-1H-imidazol-2-yl)-7-(methylamino)-7-oxoheptyl)-1H-pyrazole-3-carboxamide]"
5.30 to 6.00,5.30 to 6.00,"CNC(=O)CCCCC[C@H](NC(=O)c1cc(C(C)(C)C)nn1C)c1ncc(-c2ccc(-c3ccn(C)n3)cc2)[nH]1 [Entry 217, (S)-3-(tert-butyl)-1-methyl-N-(1-(5-(4-(1-methyl-1H-pyrazol-3-yl)phenyl)-1H-imidazol-2-yl)-7-(methylamino)-7-oxoheptyl)-1H-pyrazole-5-carboxamide]"
> 6.00,> 6.00,"Cn1ccc(-c2ccc(-c3cnc([C@H](CCCCCC(N)=O)NC(=O)c4cncs4)[nH]3)cc2)n1 [Entry 218, (S)-N-(7-amino-1-(5-(4-(1-methyl-1H-pyrazol-3-yl)phenyl)-1H-imidazol-2-yl)-7-oxoheptyl)thiazole-5-carboxamide]"
5.30 to 6.00,5.30 to 6.00,"CNC(=O)CCCCC[C@H](NC(=O)c1cncs1)c1ncc(-c2ccc3ccnc(OC)c3c2)[nH]1 [Entry 219, (S)-N-(1-(5-(1-methoxyisoquinolin-7-yl)-1H-imidazol-2-yl)-7-(methylamino)-7-oxoheptyl)thiazole-5-carboxamide]"
> 6.00,> 6.00,CNC(=O)CCCCC[C@H](NS(=O)(=O)c1ccc(C#N)cc1)c1ncc(-c2cc3ccccc3nc2OC)[nH]1 [Entry 220]
< 5.30,5.30 to 6.00,"CNC(=O)CCCCC[C@H](NC(=O)c1cncs1)c1ncc(-c2ccc(-c3ccn(C)n3)cc2)o1 [Entry 222, (S)-N-(1-(5-(4-(1-methyl-1H-pyrazol-3-yl)phenyl)oxazol-2-yl)-7-(methylamino)-7-oxoheptyl)thiazole-5-carboxamide]"
< 5.30,5.30 to 6.00,"CNC(=O)CCCCC[C@H](NC(=O)c1cnn(C(C)C)c1)c1ncc(-c2ccc(-c3ccn(C)n3)cc2)o1 [Entry 223, (S)-1-isopropyl-N-(1-(5-(4-(1-methyl-1H-pyrazol-3-yl)phenyl)oxazol-2-yl)-7-(methylamino)-7-oxoheptyl)-1H-pyrazole-4-carboxamide]"
< 5.30,5.30 to 6.00,"CNC(=O)CCCCC[C@H](NC(=O)c1cnn(C)c1)c1ncc(-c2ccc(-c3ccn(C)n3)cc2)o1 [Entry 224, (S)-1-methyl-N-(1-(5-(4-(1-methyl-1H-pyrazol-3-yl)phenyl)oxazol-2-yl)-7-(methylamino)-7-oxoheptyl)-1H-pyrazole-4-carboxamide]"
< 5.30,5.30 to 6.00,"CNC(=O)CCCCC[C@H](NC(=O)c1cnc(C)s1)c1ncc(-c2ccc(-c3ccn(C)n3)cc2)o1 [Entry 225, (S)-2-methyl-N-(1-(5-(4-(1-methyl-1H-pyrazol-3-yl)phenyl)oxazol-2-yl)-7-(methylamino)-7-oxoheptyl)thiazole-5-carboxamide]"

# Source: patent US9365541B2, “Compounds for use in the treatment of parasitic diseases” (IRBM—SCIENCE PARK S.P.A., priority 2012, dated 2016)
